Entries after “also recorded” stand apart in the source; their conditions may differ.
Experiments:
miR-22 in HCT116 cells [1] = assay: miR-22 induction in HCT116 cells treated with bile acids or HDAC inhibitors; type: cell-based, human
Experimental: A time course study in which HCT116 cells were treated by 150 μM CDCA for indicated times. […] Data are presented as mean+/−S.D. * denotes p<0.05.
Data are shown as mean+/−S.D. * p<0.05; ** p<0.01; ***p<0.001.
OCA is a semi-synthetic bile acid, which as the structure of 6α-ethyl-chenodeoxycholic acid.

[2] = test system: FGF21 signaling and miR-22 in Huh7 cells; assay: mRNA and protein levels in Huh7 cells treated with OCA/INT-747, CDCA, butyrate or RA plus butyrate; type: cell-based, human; conditions: for mRNA and protein levels of FGF21, FGFR1 and PGC1α: OCA 5 or 20 μM
Experimental: (§1) Cell culture: Huh7 cells were obtained from Japanese Collection of Research Bioresources and maintained in DMEM with 10% FBS. Cells were treated with DMSO, OCA (5 or 20 μM; Apexbio Technology LLC, Houston, Tex., USA) in serum-free media for indicated time. Cells were plated (1×10^6 cells per 60-mm dish, 2×10^5 cells per 6-well plates, and 1×10^5 cells per 24-well plates) overnight prior to treatment or infection.
Gene expression quantification: Total RNA was extracted using TRIzol Reagent (Thermo Fisher Scientific, Waltham, Mass., USA), and cDNA was generated using High Capacity RNA-to-cDNA Kit (Applied Biosysterms, Carlsbad, Calif., USA). qRT-PCR was performed on ABI 7900HT Fast Real-time PCR system using Power SYBR® Green PCR Master Mix (Applied Biosysterms).
(§2) Western blot: Western blot was performed as described previously (26). Antibodies used were anti-FGFR1, FGF21, FASN, phosphor (P)-AMPK, total (T)-AMPK, phosphor (P)-ERK1/2, and total (T)-ERK1/2 (Cell Signaling Technology, Beverly, Mass., USA), β-ACTIN (MilliporeSigma), CD36 (Bioss Antibodies Inc., Woburn, Mass., USA), CYCLIN A2, PGC1α (Novus Biologicals, LLC, Littleton, Colo., USA), and PPARα (Santa Cruz Biotechnology, Santa Cruz, Calif., USA).

[3] = test system: FGF21 signaling in Huh7 cells; assay: Huh7 cells infected/transfected with miR-22 or miR-22 inhibitors, mRNA and Western blot; type: cell-based, human; conditions: adenovirus control or miR-22 inhibitors followed by DMSO or OCA 5 μM for 6 h
Text: However, miR-22 was induced in the livers and adipose tissues of WD-fed mice (FIG. 15B). Similarly, using human liver biopsy specimens, miR-22 levels were positively associated with hepatic fat content and inversely correlated with the mRNA levels of PGC-1α, a key regulator of mitochondrial biogenesis (FIG. 15C). […] To study the downstream effects of miR-22, miR-22 mimics (ID: MIMAT0000077, […] (SEQ ID NO:2), Applied Biological Materials Inc.) were used to transfect human liver Huh7 cells.
as §1
Constructs and luciferase reporter assay: The 3′ untranslated region (3′-UTR) of the FGFR1 gene containing the putative binding site for miR-22 and the entire 3′-UTR of the FGF21 gene (105 bp) was cloned into the psiCHECK2 vector (Promega, Madison, Wis., USA) using NotI and XhoI. For cell infection, adenovirus (negative control), adenoviral-delivered miR-22 (miR-22), or adenoviral-miR-22 inhibitors (SEQ ID NO:1; Applied Biological Materials Inc., Richmond, BC) were used. Forty-eight h post infection, cells were transfected with psiCHECK2-FGR1-3′UTR or psiCHECK2-FGF21 3′UTR using Lipofectamine 2000 (Thermo Fisher Scientific). Twenty-four h later, cells were harvested for firefly and Renilla luciferase assay using the Dual-luciferase Reporter system (Promega). Renilla luciferase activity was standardized to firefly luciferase activity.
as §2

[4] = test system: Western diet-induced obese C57BL/6 male mice; assay: WD-induced obese mice treated with OCA, miR-22 inhibitors or both for 3 weeks; type: in vivo, mouse
Experimental: Mice: C57BL/6 wild-type (WT) male mice (Charles River Laboratories, Inc., Wilmington, Mass., USA) were housed in regular filter-top cages at 22° C. with a 12 h/12 h light/dark cycle. For Western diet (WD)-induced obesity models, mice were fed a WD (21% fat, 34% sucrose, and 0.2% cholesterol, w/w) or control diet (CD 5% fat, 12% sucrose, and 0.01% cholesterol, w/w; Harlan Teklad, Indianapolis, Ind., USA) after weaning (3 weeks). When those mice were 7-months old, WD-fed mice were randomly assigned to […] and received vehicle (0.5% carboxyl methyl cellulose sodium), OCA ([…], daily, oral gavage), miR-22 inhibitors (1×10^9 PFU, tail vein injection, once a week), and the combination of OCA and miR-22 inhibitors for three weeks. For alcohol-induced steatosis models, 3-month-old C57BL/6 male mice were initially fed a control Lieber-DeCarli diet (F1259SP, Bio-Serv, Flemington, N.J., USA) ad libitum for 5 days followed by 5% alcohol supplementation for 21 days (F1258SP, Bio-Serv). Then, those alcohol-fed mice received adenovirus (negative control) or miR-22 inhibitors (1×10^9 PFU, tail vein injection, 3 times in 10 days). All the mice were euthanized 1 day after the last viral injection. Animal experiments were conducted in accordance with the National Institutes of Health Guide for the Care and Use of Laboratory Animals under protocols approved by the Institutional Animal Care and Use Committee of the University of California, Davis.
Biochemical analysis: Hepatic triglyceride and cholesterol (BioAssay Systems, Hayward, Calif., USA) levels and serum lipopolysaccharide (LPS) (Thermo Fisher Scientific), alanine transaminase (ALT) (Pointe Scientific), and alkaline phosphatase (ALP) (Pointe Scientific) levels were quantified according to the manufacturer's instructions.
Insulin tolerance test: After 6 h food deprivation, tail vein blood was used to establish fasting blood glucose levels. For insulin tolerance testing, insulin (1 U/kg body weight, i.p.; MilliporeSigma, Burlington, Mass., USA) was given followed by measuring blood glucose level at various times with the OneTouch Ultra 2 (Johnson & Johnson Co., New Brunswick, N.J., USA). The area under the curve (AUC) of the blood glucose levels over time was calculated.
Serum FGF21 and glucagon-like peptide (GLP-1) secretion assay: Serum FGF21 levels were quantified by ELISA (Boster Biological Technology, Pleasanton, Calif., USA). For GLP-1 secretion assays, mice were unfed for 12 h followed by orally administration of dipeptidyl peptidase-4 inhibitor, sitagliptin ([…]; TSZ Chem, Framingham, Mass., USA) and a liquid diet (Ensure Plus, […]; Ross Laboratories, Columbus, Ohio, USA), which contains 15% protein, 57% carbohydrate, and 28% fat to stimulate GLP-1 secretion, as previously described (25). Blood samples were collected immediately (time 0) as well as 15, and 30 min after Ensure Plus feeding. Serum GLP-1 was quantified by a ELISA kit (RayBiotech Life, Norcross, Ga., USA).

miR-22 in HCT116 cells [5] = assay: miR-22 induction in HCT116 cells treated with bile acids or HDAC inhibitors; type: cell-based, human; remark: listed apart in the source
[6] = test system: patients with NASH and T2DM; conditions: cited from earlier work
[7] = test system: hepatic inflammation and fibrosis; conditions: 30 mg/kg/day, gavage, every 2 days for 4 weeks; cited from earlier work
[8] = 1-day treatment, SAHA (5, butyrate 5 mM, propionate 10 mM, valerate 10 mM)

## CC[C@H]1[C@@H](O)[C@@H]2[C@H](CC[C@]3(C)[C@@H]([C@H](C)CCC(=O)O)CC[C@@H]23)[C@@]2(C)CC[C@@H](O)C[C@@H]12 [OCA, obeticholic acid]
miR-22 in HCT116 cells [1]
  CCNA2 expression: reduced CCNA2
  FXR target FGF19 expression: induced FXR target FGF19
[2]; 6 h
  miR-22 level: induced miR-22
[2]; 6 hours
  AMPK and ERK1/2 activation: activated AMPK and ERK1/2
  βKlotho protein level: modestly increased
  mRNA and protein levels of FGF21, FGFR1 and PGC1α: induced FGF21 signaling by increasing the expression of FGF21, FGF21 receptor (FGFR1), and PGC1α; also recorded: increased mRNA and protein levels of FGF21 and FGFR1 as well as PGC1α
[2]; 6 hours, listed as INT-747
  mRNA and protein levels of FGF21, FGFR1 and PGC1α: markedly increased the mRNA and protein level of FGF21 and FGFR1
[3]
  FGF21, FGFR1, P-AMPK, and P-ERK1/2 protein levels: same effects in increasing FGF21, FGFR1, P-AMPK, and P-ERK1/2
[4]; WD-fed 7-month-old mice, 3 weeks, OCA 10 mg/g body weight daily oral gavage, miR-22 inhibitors 1×10^9 PFU once a week
  hepatic fat accumulation (steatosis score): reduced hepatic fat accumulation
[4]; WD-fed mice, 3 weeks treatment
  hepatic cholesterol level: reduced hepatic cholesterol level
  hepatic triglyceride levels: did not significantly reduce hepatic triglyceride levels
  release of GLP-1 (serum): stimulated the release of GLP-1
  serum FGF21 level: reduced
[4]; diet-induced obese mice
  hepatic FASN and CD36: reduced FASN and CD36
  hepatic FGF21 and FGFR1: induced hepatic FGF21 and FGFR1
[4]; reduced by WD intake
  expression of hepatic Pepck, G6pase, and Fbp1: reversed those reductions
miR-22 in HCT116 cells [5]; 24 hours, CDCA 50, 100, 150 μM, OCA 25 and 50 μM
  miR-22 level: induced miR-22
[6]; clinical trials, 19% in the placebo group, p<0.05
  patients with fibrosis having ≥1 stage of fibrosis improvement: 41%
[6]; clinical trials, 21% in the placebo group, p<0.01
  patients reaching the primary endpoint of a ≥2-point improvement in NAFLD activity score without worsening fibrosis: 57%
[6]; clinical trials
  insulin sensitivity: improves insulin sensitivity
  markers of liver inflammation and fibrosis: reduced markers of liver inflammation and fibrosis
[6]; overdose
  deaths and liver injury: caused deaths and liver injury
[7]
  hepatic inflammation and fibrosis: reduces hepatic inflammation and fibrosis

## O=C(CCCCCCC(=O)Nc1ccccc1)NO [SAHA, suberanilohydroxamic acid]
miR-22 in HCT116 cells [5]; [8]
  miR-22 level: induced miR-22

## CC(=O)O [acetate]
miR-22 in HCT116 cells [5]; [8]
  miR-22 level: not able to induce miR-22

## O=CO [formate]
miR-22 in HCT116 cells [5]; [8]
  miR-22 level: not able to induce miR-22

## CCC(=O)O [propionate]
miR-22 in HCT116 cells [5]; [8]
  miR-22 level: induced miR-22

## CCCCC(=O)O [valerate]
miR-22 in HCT116 cells [5]; [8]
  miR-22 level: induced miR-22

From US20210163929A1, “METHODS AND COMPOSITIONS FOR THE TREATMENT OF HEPATIC AND METABOLIC DISEASES” (The Regents of the University of California, priority 2018, published 2021)
